Experimental data from patent publication US10065990B2, “Cyclic peptide compound, and preparation method, pharmaceutical composition and use thereof” (HANGZHOU GUANYU BIO-MEDICAL CO., LTD, priority 2013, dated 2018).
Where two headings read alike, the source gives them in different places.

Tests used:
[1] = test system: HT1080 (human fibrosarcoma cells); assay: MTT cancer cell growth inhibition; type: cell-based; details: Homo sapiens, HT-1080, 72 h, MTT, 72 hours incubation, read-out: GI50 HT1
How it was run: (§1)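 Tumour cells in 10% FBS-supplemented DMEM or RPMI 1640 are plated at 1500 per well, dosed next day with compound (10^−5 through 10^−10 M, final) and kept 72 h. MTT is added for 4 h; dissolved formazan is measured at 570 nm and GI50 determined.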

[2] = test system: MCF-7 (human breast cancer cells); assay: MTT cancer cell growth inhibition; type: cell-based; details: Homo sapiens, MCF7, 72 h, 72 hours incubation, read-out: GI50 MCF
How it was run: as §1

[3] = test system: PANC-1 (Pac-1, human pancreatic cancer cells); assay: MTT cancer cell growth inhibition; type: cell-based; details: Homo sapiens, PANC-1, 72 h, MTT, 72 hours incubation, read-out: GI50 PAN
How it was run: as §1

[4] = test system: MOLT-4 (human acute lymphoblastic leukemia cells); assay: MTT cancer cell growth inhibition; type: cell-based; details: Homo sapiens, MOLT-4, 72 h, MTT, 72 hours incubation, read-out: GI50 Mol
How it was run: as §1

[5] = test system: Huh-7 (human hepatoma cells); assay: MTT cancer cell growth inhibition; type: cell-based; details: Homo sapiens, Huh-7, 72 h, MTT, 72 hours incubation, Huh-7 cells; read-out: GI50 Huh-7
How it was run: as §1

[6] = test system: Bel-7402 (human hepatoma cells); assay: MTT cancer cell growth inhibition; type: cell-based; details: Homo sapiens, Bel-7402, 72 h, MTT, 72 hours incubation, Bel-7402 cells; read-out: GI50 Bel-7402
How it was run: as §1

[7] = test system: lncap (prostate cancer cells); assay: MTT cancer cell growth inhibition; type: cell-based; details: Homo sapiens, LNCaP, 72 h, MTT, 72 hours incubation, read-out: GI50 lnca
How it was run: as §1

[8] = test system: KBM5-T315I (human chronic myelogenous leukemia); assay: MTT cancer cell growth inhibition; type: cell-based; details: Homo sapiens, 72 h, MTT, 72 hours incubation, KBM5-T315I cells; read-out: GI50 KBM5-T315I
How it was run: as §1

[9] = test system: A549 (human lung cancer cells); assay: MTT cancer cell growth inhibition; type: cell-based; details: Homo sapiens, A549, 72 h, MTT, 72 hours incubation, read-out: GI50 A54
How it was run: as §1

[10] = test system: HCC827 (human non-small cell lung cancer cells); assay: MTT cancer cell growth inhibition; type: cell-based; details: Homo sapiens, HCC827, 72 h, MTT, 72 hours incubation, HCC827 cells; read-out: GI50 HCC827
How it was run: as §1

[11] = test system: H1975 (non-small cell lung adenocarcinoma); assay: MTT cancer cell growth inhibition; type: cell-based; details: Homo sapiens, NCI-H1975, 72 h, MTT, 72 hours incubation, H1975 cells; read-out: GI50 H1975
How it was run: as §1

[12] = test system: MDA-MB-231 (breast cancer cells); assay: MTT cancer cell growth inhibition; type: cell-based; details: Homo sapiens, MDA-MB-231, 72 h, read-out: GI50 MDA-MB-231, MTT, 72 hours incubation, MDA-MB-231 cells
How it was run: as §1

[13] = test system: DU145 (human prostate cancer cells); assay: MTT cancer cell growth inhibition; type: cell-based; details: Homo sapiens, DU-145, 72 h, MTT, 72 hours incubation, read-out: GI50 Du1
How it was run: as §1

[14] = test system: SGC-7901 (human gastric cancer cells); assay: MTT cancer cell growth inhibition; type: cell-based; details: Homo sapiens, SGC-7901, 72 h, MTT, 72 hours incubation, SGC-7901 cells; read-out: GI50 SGC-7901
How it was run: as §1

[15] = test system: K562 (human leukemia cells); assay: MTT cancer cell growth inhibition; type: cell-based; details: Homo sapiens, K562, 72 h, MTT, 72 hours incubation, K562 cells; read-out: GI50 K562
How it was run: as §1

[16] = test system: BGC-823 (human gastric cancer cells); assay: MTT cancer cell growth inhibition; type: cell-based; details: Homo sapiens, BGC-823, 72 h, MTT, 72 hours incubation, read-out: GI50 BG
How it was run: as §1

[17] = test system: U937 (human leukemia cells); assay: MTT cancer cell growth inhibition; type: cell-based; details: Homo sapiens, U-937, 72 h, MTT, 72 hours incubation, read-out: GI50 U93
How it was run: as §1

[18] = test system: KBM-5 (human chronic myelogenous leukemia); assay: MTT cancer cell growth inhibition; type: cell-based; details: Homo sapiens, KBM5, 72 h, MTT, 72 hours incubation, KBM-5 cells; read-out: GI50 KBM-5
How it was run: as §1

[19] = test system: Hela (human cervical cancer cells); assay: MTT cancer cell growth inhibition; type: cell-based; details: Homo sapiens, HeLa, 72 h, MTT, 72 hours incubation, read-out: GI50 Hela
How it was run: as §1

[20] = test system: N-87 (human gastric cancer cells); assay: MTT cancer cell growth inhibition; type: cell-based; details: Homo sapiens, 72 h, MTT, 72 hours incubation, N-87 cells; read-out: GI50 N-87
How it was run: as §1

HDAC7 = target: T1, HDAC7 (Homo sapiens, UniProt Q8WUI4); assay: HDAC biochemical activity measurement (fluorescent substrate deacetylation);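 on all read-outs here: fluorogenic deacetylation assay using acetyl-lysine substrate at 20 µM, enzyme and compound incubated 30 min at 37 °C, then developer added, fluorescence read at 360/460 nm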; details: for IC50 HDAC7: 37° C. 30 minutes
T1 sequence (Q8WUI4 1-952): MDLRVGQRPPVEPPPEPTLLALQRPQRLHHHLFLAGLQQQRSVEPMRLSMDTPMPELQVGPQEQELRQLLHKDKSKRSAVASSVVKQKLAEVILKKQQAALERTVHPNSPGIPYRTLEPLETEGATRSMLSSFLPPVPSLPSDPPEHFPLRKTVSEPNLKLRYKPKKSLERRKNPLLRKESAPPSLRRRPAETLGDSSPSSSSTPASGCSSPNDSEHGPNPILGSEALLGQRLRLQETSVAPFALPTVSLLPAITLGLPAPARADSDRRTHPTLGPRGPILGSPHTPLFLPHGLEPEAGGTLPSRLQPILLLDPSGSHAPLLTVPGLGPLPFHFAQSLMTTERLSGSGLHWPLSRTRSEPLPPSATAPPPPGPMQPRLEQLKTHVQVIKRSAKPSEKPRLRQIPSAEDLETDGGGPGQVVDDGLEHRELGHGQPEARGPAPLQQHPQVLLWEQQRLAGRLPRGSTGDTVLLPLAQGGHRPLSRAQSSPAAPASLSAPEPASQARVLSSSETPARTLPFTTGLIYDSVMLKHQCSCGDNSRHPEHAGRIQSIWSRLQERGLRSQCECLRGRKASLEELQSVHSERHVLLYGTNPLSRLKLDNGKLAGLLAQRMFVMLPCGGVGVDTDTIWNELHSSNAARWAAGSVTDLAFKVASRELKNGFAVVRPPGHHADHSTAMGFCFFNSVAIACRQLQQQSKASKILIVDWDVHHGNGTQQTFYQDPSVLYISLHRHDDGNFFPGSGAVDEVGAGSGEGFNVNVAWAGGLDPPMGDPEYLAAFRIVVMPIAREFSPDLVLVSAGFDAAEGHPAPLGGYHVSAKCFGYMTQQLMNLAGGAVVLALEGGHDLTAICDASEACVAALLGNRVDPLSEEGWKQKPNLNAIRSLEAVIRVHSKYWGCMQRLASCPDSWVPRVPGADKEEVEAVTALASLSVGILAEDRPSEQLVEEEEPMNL

| SMILES | GI50 ([1]; HT1080 cells) | GI50 ([2]; MCF-7 cells) | GI50 ([3]; PANC-1 cells) | GI50 ([4]; MOLT-4 cells) | GI50 [5] | GI50 [6] | GI50 ([7]; lncap cells) | GI50 [8] | GI50 ([9]; A549 cells) | GI50 [10] | GI50 [11] | GI50 [12] | GI50 ([13]; DU145 cells) | GI50 [14] | GI50 [15] | GI50 ([16]; BGC-823 cells) | GI50 ([17]; U937 cells) | GI50 [18] | GI50 [20] | IC50 HDAC7 (HDAC7) | other results |
| --- | --- | --- | --- | --- | --- | --- | --- | --- | --- | --- | --- | --- | --- | --- | --- | --- | --- | --- | --- | --- | --- |
| C/C=C1\NC(=O)c2ccc(SC)c(n2)CNC(=O)C[C@@H](/C=C/CCSC(C)=O)OC(=O)[C@H](CCCCNC(=O)OCC2c3ccccc3-c3ccccc32)NC1=O [Compound 197] | 50 nM | 50 nM | 40 nM | 40 nM | 76 nM | 52 nM | 30 nM | 21 nM | 60 nM | 71 nM | 45 nM | 16 nM | 50 nM | 43 nM | 49 nM | 40 nM | 80 nM | 86 nM | 28 nM | no activity | GI50 ([19]; Hela cells): 70 nM |
| C/C=C1\NC(=O)c2ccc(SC)c(n2)CNC(=O)C[C@@H](/C=C/CCSC(C)=O)OC(=O)[C@H](CCCCN)NC1=O [Compound 194] | 10 nM | 40 nM | 40 nM | 30 nM | 84 nM | 27 nM | 20 nM | 25 nM | 30 nM | 35 nM | 23 nM | 27 nM | 30 nM | 43 nM | 29 nM | 50 nM | 60 nM | 51 nM | 36 nM | no activity | GI50 ([19]; Hela cells): 50 nM |
| C/C=C1\NC(=O)c2nc(ccc2F)CNC(=O)C[C@@H](/C=C/CCSC(C)=O)OC(=O)[C@@H](C)NC1=O [Compound 100] | – | – | – | – | 27 nM | 71 nM | – | 31 nM | – | 17 nM | 53 nM | 78 nM | – | 57 nM | 34 nM | – | – | 35 nM | 32 nM | no activity | GI50 [1]: 90 nM; GI50 [2]: 20 nM; GI50 [3]: 90 nM; GI50 [4]: 30 nM; GI50 [7]: 30 nM; GI50 [9]: 50 nM; GI50 [13]: 20 nM; GI50 [16]: 20 nM; GI50 [17]: 60 nM; GI50 [19]: 70 nM |
| C/C=C1\NC(=O)c2ccc(SCC)c(n2)CNC(=O)C[C@@H](/C=C/CCSC(=O)CCCCC)OC(=O)[C@H](C(C)C)NC1=O [Compound 255] | 60 nM | 80 nM | 40 nM | 50 nM | 45 nM | 35 nM | 50 nM | 37 nM | 30 nM | 57 nM | 68 nM | 23 nM | 40 nM | 48 nM | 56 nM | 30 nM | 20 nM | 32 nM | 51 nM | – | GI50 ([19]; Hela cells): 10 nM; IC50 (μM) HDAC7 (HDAC7): no activity |
| C/C=C1\NC(=O)c2nc(ccc2F)CNC(=O)C[C@@H](/C=C/CCS)OC(=O)[C@H](Cc2cccc3ccccc23)NC1=O [Compound 124] | – | – | – | – | 16 nM | 72 nM | – | 15 nM | – | 35 nM | 28 nM | 51 nM | – | 42 nM | 76 nM | – | – | 57 nM | 45 nM | no activity | GI50 [1]: 30 nM; GI50 [2]: 30 nM; GI50 [3]: 690 nM; GI50 [4]: 50 nM; GI50 [7]: 70 nM; GI50 [9]: 50 nM; GI50 [13]: 20 nM; GI50 [16]: 30 nM; GI50 [17]: 100 nM; GI50 [19]: 30 nM |
| CC(=O)SCC/C=C/[C@@H]1CC(=O)NCc2ccc(F)c(n2)C(=O)NC(=C(C)C)C(=O)N[C@@H](C(C)C)C(=O)O1 [Compound 87] | – | – | – | – | 19 nM | 57 nM | – | 37 nM | – | 57 nM | 42 nM | 19 nM | – | 37 nM | 27 nM | – | – | 82 nM | 21 nM | no activity | GI50 [1]: 50 nM; GI50 [2]: 30 nM; GI50 [3]: 50 nM; GI50 [4]: 10 nM; GI50 [7]: 10 nM; GI50 [9]: 30 nM; GI50 [13]: 20 nM; GI50 [16]: 20 nM; GI50 [17]: 40 nM; GI50 [19]: 80 nM |
